Measured values: ChEMBL document CHEMBL5726194, “Benzenesulfonamide compounds and their use as therapeutic agents” (2017)

Test: Electrophysiological Assay : The following patch voltage clamp electrophysiology studies were performed on representative compounds of the invention using human embryonic kidney cells (HEK), permanently transfected with an expression vector containing the full-length cDNA coding for the desired human sodium channel α-subunit, grown in culture media containing 10% FBS, 1% PSG, and 0.5 mg/mL G418 at 37° C. with 5% CO2. […] Nav1.7 and Nav1.5 cDNAs (NM_002977 and AC137587; SCN5A, respectively) were stably expressed in HEK-293 cells. The β1 subunit was coexpressed only in the Nav1.7 cell line.
Assay type: cell-based

`O=S(=O)(Nc1ncns1)c1cc(F)c(OC[C@@H]2CNCC[C@H]2c2ccc(F)c(C(F)(F)F)c2)cc1F` (relative stereo) gave an IC50 of 71 nM.
